{
  "source": "patent US7728000B2",
  "about": "“Substituted quinolines for the treatment of cancer” (Crystax Pharmaceuticals, priority 2003, dated 2010)",
  "key": {"Jurkat clon E6-1": {"system": "Jurkat clon E6-1", "assay": "In vitro cytotoxicity, colorimetric MTT assay on Jurkat clon E6-1", "format": "cell-based", "conditions": "human leukemia cell line, concentrations up to 100 mikroM, incubation until 72 h, read-out: IC50 (_M) Jurkat clon E6-1", "procedure": "(§1) The in vitro cytotoxicity of the compounds of the present invention was evaluated by colorimetric assays with tetrazol salts (MTT) on Jurkat clon E6-1 and on GLC-4, human leukemia and carcinoma cell lines, respectively. This assay is based on the capacity of live cells to incorporate and reduce the MTT, […], only active in live cells. The intensity of observed colour is directly correlated with the quantity of live cells in the sample as it is described by Mosmann et al., J. Immunol. Methods 1983, vol. 65, p. 55. In all cases the concentrations used were up to 100 mikroM and times of incubation until 72 h."}, "GLC-4": {"system": "GLC-4", "assay": "In vitro cytotoxicity, colorimetric MTT assay on GLC-4", "format": "cell-based", "conditions": "GLC4, human carcinoma cell line, concentrations up to 100 mikroM, incubation until 72 h, read-out: IC50 (_M)GLC-4", "procedure": "as §1"}},
  "data": [
    {"smiles": "CN(CCCNC(=O)c1c2ccccc2nc2ccccc12)CCCNC(=O)c1c2ccccc2nc2c1[nH]c1ccccc12", "note": "[Ia, N-[3-[[3-[(9-acridinecarbonyl)amino]propyl]methylamino]propyl]-10H-indolo[3,2-b]quinoline-11-carboxamide]", "values": [
      {"measurement": "IC50", "setting": "Jurkat clon E6-1", "value": 1420, "unit": "nM"},
      {"measurement": "IC50", "setting": "GLC-4", "value": 1630, "unit": "nM"},
      {"measurement": "melting point", "value": "108 to 110", "unit": "°C"}
    ]},
    {"smiles": "CN(C)CCNc1c2nc3ccccc3c-2n(C)c2ccccc12", "note": "[Ip, N,N-dimethyl-N′-(5-methyl-5H-indolo[3,2-b]quinolin-11-yl)-ethane-1,2-diamine]", "values": [
      {"measurement": "IC50", "setting": "Jurkat clon E6-1", "value": 260, "unit": "nM"},
      {"measurement": "IC50", "setting": "GLC-4", "value": 670, "unit": "nM"}
    ]},
    {"smiles": "CN(C)CCNC(=O)c1c2ccccc2nc2c1[nH]c1ccccc12", "note": "[Iu, 10H-indolo[3,2-b]quinoline-11-carboxylic acid (2-dimethylamino-ethyl)amide]", "values": [
      {"measurement": "IC50", "setting": "Jurkat clon E6-1", "value": 18700, "unit": "nM"},
      {"measurement": "IC50", "setting": "GLC-4", "value": 15700, "unit": "nM"}
    ]},
    {"smiles": "CC(CNC(=O)c1c2ccccc2nc2c1[nH]c1ccccc12)N(C)C", "note": "(stereo not shown) [Iv, 10H-Indolo[3,2-b]quinoline-11-carboxylic acid (2-dimethylamino-propyl)amide]", "values": [
      {"measurement": "IC50", "setting": "GLC-4", "value": 16700, "unit": "nM"},
      {"measurement": "melting point", "value": "188 to 189", "unit": "°C"}
    ]},
    {"smiles": "CC(CN(C)C)Nc1c2nc3ccccc3c-2n(C)c2ccccc12", "note": "(stereo not shown) [Iw, N,N-dimethyl-N′-(5-methyl-5H-indolo[3,2-b]quinolin-11-yl)-propane-1,2-diamine]", "values": [
      {"measurement": "IC50", "setting": "GLC-4", "value": 1080, "unit": "nM"}
    ]}
  ]
}
